Measurements: ChEMBL document CHEMBL1201862, “PubChem BioAssay data set” (2004)
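Results reflect a 48-hour exposure of cells in 96-well plates to compound at five concentrations. GI50 marks 50% less growth.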 Calls of active or inactive are those of the source. Rule as the data show it: active = GI50 up to about 1.1 µM and inactive = higher.

Legend:
Test in all cases: NCI anticancer screen, dose series, 48 h
[1] = tested on: SK-MEL-28
[2] = tested on: KM12
[3] = tested on: SF-295
[4] = tested on: M19-MEL
[5] = tested on: SK-MEL-2
[6] = tested on: CAKI-1
[7] = tested on: NCI-H226
[8] = tested on: SK-OV-3
[9] = tested on: NCI-H460
[10] = tested on: SW-620
[11] = tested on: M14
[12] = tested on: UACC-62
[13] = tested on: A549
[14] = tested on: EKVX
[15] = tested on: OVCAR-4
[16] = tested on: ACHN
[17] = tested on: TK-10
[18] = tested on: HCT-15
[19] = tested on: U-251
[20] = tested on: K562
[21] = tested on: UO-31
[22] = tested on: HOP-62
[23] = tested on: RPMI-8226
[24] = tested on: SK-MEL-5
[25] = tested on: OVCAR-8
[26] = tested on: HT-29
[27] = tested on: SR
[28] = tested on: SF-268
[29] = tested on: XF498
[30] = tested on: HCC 2998
[31] = tested on: UACC-257
[32] = tested on: HOP-92
[33] = tested on: MOLT-4
[34] = tested on: HCT-116
[35] = tested on: SNB-75
[36] = tested on: NCI-H522
[37] = tested on: A498
[38] = tested on: SNB-78
[39] = tested on: 786-0
[40] = tested on: HOP-18
[41] = tested on: SF-539
[42] = tested on: HL-60
[43] = tested on: COLO 205
[44] = tested on: OVCAR-5
[45] = tested on: DLD-1
[46] = tested on: Malme-3M
[47] = tested on: LXFL 529
[48] = tested on: NCI-H23
[49] = tested on: IGROV-1
[50] = tested on: LOX IMVI
[51] = tested on: SN12C
[52] = tested on: CCRF-CEM
[53] = tested on: SNB-19
[54] = tested on: DMS-273
[55] = tested on: RXF 393
[56] = tested on: KM-20L2
[57] = tested on: OVCAR-3

Measured: GI50

CCOC(=O)/C(=C/c1ccc(Cl)cc1)N(CC)CC
> 100 µM: [18]
inactive: [1] > 100 µM | [2] > 100 µM | [3] > 100 µM | [4] > 100 µM | [5] > 100 µM | [6] > 100 µM | [7] > 100 µM | [8] > 100 µM | [9] > 100 µM | [10] > 100 µM | [11] > 100 µM | [12] > 100 µM | [13] 90.4 µM | [14] > 100 µM | [15] > 100 µM | [16] > 100 µM | [17] > 100 µM | [19] > 100 µM | [20] > 100 µM | [21] > 100 µM | [22] > 100 µM | [23] > 100 µM | [24] > 100 µM | [25] > 100 µM | [26] > 100 µM | [27] > 100 µM | [28] > 100 µM | [29] > 100 µM | [30] > 100 µM | [31] > 100 µM | [32] 74.1 µM | [33] > 100 µM | [34] > 100 µM | [35] > 100 µM | [36] 89.1 µM | [37] > 100 µM | [38] > 100 µM | [39] > 100 µM | [40] > 100 µM | [41] > 100 µM | [42] > 100 µM | [43] > 100 µM | [44] > 100 µM | [45] > 100 µM | [46] > 100 µM | [47] > 100 µM | [48] > 100 µM | [49] > 100 µM | [50] > 100 µM | [51] > 100 µM | [52] > 100 µM

O=[N+]([O-])c1cccc(C2=NN(c3ccccc3)C[N+](c3ccc(Br)cc3)=N2)c1
active: [27] < 0.01 µM
> 100 µM: [18]
inactive: [1] > 100 µM | [2] 73.5 µM | [3] 64.9 µM | [4] 70.8 µM | [53] > 100 µM | [5] 87.3 µM | [6] > 100 µM | [8] > 100 µM | [9] > 100 µM | [10] > 100 µM | [11] 59 µM | [12] > 100 µM | [13] > 100 µM | [14] > 100 µM | [15] > 100 µM | [16] 93.5 µM | [17] > 100 µM | [19] > 100 µM | [20] 50.2 µM | [54] 77.4 µM | [21] 96.4 µM | [22] > 100 µM | [23] 82 µM | [24] > 100 µM | [25] > 100 µM | [26] 47.4 µM | [28] > 100 µM | [29] > 100 µM | [30] 70.8 µM | [31] > 100 µM | [32] 83.2 µM | [33] 35.7 µM | [34] 97.1 µM | [35] > 100 µM | [36] 77.1 µM | [37] > 100 µM | [38] 34.4 µM | [39] > 100 µM | [40] 43.7 µM | [41] > 100 µM | [43] > 100 µM | [44] > 100 µM | [45] 96.8 µM | [46] > 100 µM | [47] 46.8 µM | [48] > 100 µM | [49] 37.3 µM | [51] > 100 µM | [55] > 100 µM | [56] > 100 µM

O=c1[nH]cc(COCCCO)c(=O)[nH]1
> 100 µM: [18]
inactive: [1] > 100 µM | [2] > 100 µM | [3] > 100 µM | [4] > 100 µM | [53] > 100 µM | [5] > 100 µM | [57] > 100 µM | [6] > 100 µM | [7] > 100 µM | [8] > 100 µM | [9] > 100 µM | [10] > 100 µM | [11] > 100 µM | [12] > 100 µM | [13] > 100 µM | [14] > 100 µM | [15] > 100 µM | [16] > 100 µM | [17] > 100 µM | [19] > 100 µM | [20] > 100 µM | [54] > 100 µM | [21] > 100 µM | [22] > 100 µM | [23] > 100 µM | [24] > 100 µM | [25] > 100 µM | [26] > 100 µM | [27] > 100 µM | [28] > 100 µM | [29] > 100 µM | [31] > 100 µM | [32] > 100 µM | [33] > 100 µM | [34] > 100 µM | [35] > 100 µM | [36] > 100 µM | [37] > 100 µM | [38] > 100 µM | [39] > 100 µM | [40] > 100 µM | [41] > 100 µM | [42] > 100 µM | [43] > 100 µM | [44] > 100 µM | [45] > 100 µM | [46] > 100 µM | [47] > 100 µM | [48] 53.5 µM | [49] > 100 µM | [50] > 100 µM | [51] > 100 µM | [52] > 100 µM | [55] > 100 µM | [56] > 100 µM

O=C(O)CCCCCOc1cccnc1/C=N/NC1=NCCN1
inactive: [1] > 100 µM | [2] > 100 µM | [3] > 100 µM | [4] > 100 µM | [53] > 100 µM | [5] > 100 µM | [57] > 100 µM | [6] > 100 µM | [7] > 100 µM | [8] > 100 µM | [9] > 100 µM | [10] > 100 µM | [11] > 100 µM | [12] > 100 µM | [13] > 100 µM | [14] > 100 µM | [15] > 100 µM | [16] > 100 µM | [17] > 100 µM | [19] > 100 µM | [20] > 100 µM | [54] > 100 µM | [21] > 100 µM | [22] > 100 µM | [23] > 100 µM | [24] > 100 µM | [25] > 100 µM | [26] > 100 µM | [27] > 100 µM | [28] > 100 µM | [29] 91 µM | [30] > 100 µM | [31] > 100 µM | [32] > 100 µM | [33] > 100 µM | [34] > 100 µM | [35] 20.7 µM | [36] > 100 µM | [37] 59.6 µM | [38] > 100 µM | [39] > 100 µM | [40] > 100 µM | [41] > 100 µM | [42] > 100 µM | [43] > 100 µM | [44] > 100 µM | [45] > 100 µM | [46] > 100 µM | [47] > 100 µM | [48] > 100 µM | [49] > 100 µM | [50] > 100 µM | [51] > 100 µM | [52] > 100 µM | [55] > 100 µM | [56] > 100 µM
> 100 µM: [18]

CC(=O)OCC1OC(OC2CC3C(C)(C)C(OC(C)=O)CC[C@]3(C)C3CCC45CC4(CC[C@H]5C(C)CC(O)[C@@H](O)C(C)(C)O)[C@]23C)C(O)C(O)C1O (some centres not stated)
inactive: [1] 7.4 µM | [2] 7.85 µM | [3] 7.93 µM | [4] 7.55 µM | [53] 7.08 µM | [5] 9.38 µM | [57] 7.19 µM | [6] 7.21 µM | [7] 7.18 µM | [8] 5.83 µM | [9] 8.95 µM | [10] 7.69 µM | [11] 6.95 µM | [12] 6.25 µM | [13] 8.02 µM | [14] 7 µM | [15] 6.67 µM | [16] 7.98 µM | [17] 7.76 µM | [19] 6.28 µM | [20] 5.55 µM | [54] 7.62 µM | [21] 6.38 µM | [22] 5.86 µM | [24] 7.13 µM | [25] 7.45 µM | [26] 8.05 µM | [28] 8.11 µM | [29] 19.8 µM | [30] 6.84 µM | [31] 7.53 µM | [32] 7.01 µM | [33] 2.36 µM | [34] 7.64 µM | [35] 6.18 µM | [36] 1.82 µM | [37] 7 µM | [39] 7.82 µM | [40] 8.61 µM | [41] 7.31 µM | [42] 3.5 µM | [43] 7.8 µM | [44] 7.66 µM | [45] 7.41 µM | [46] 7.69 µM | [47] 5.65 µM | [48] 8.53 µM | [49] 7.36 µM | [50] 6.95 µM | [51] 7.05 µM | [52] 6.46 µM | [55] 7.57 µM | [56] 8.05 µM
active: [23] 0.173 µM
7.64 µM: [18]
